Legend:
[1] = molecular target: Human immunodeficiency virus type 1 protease (Human immunodeficiency virus 1, UniProt Q72874); assay: Inhibitory activity against HIV-1 protease; settings: read-out: Ki app
MOLT-4 = assay: Compound was tested for in vitro inhibitory activity against HIV replication in MOLT-4 cells; format: functional, cell-based; settings: Homo sapiens

Structure (SMILES) | Ki [1] [nM] | IC50 (MOLT-4) [nM]
CC(C)OC(=O)N[C@H](C(=O)N[C@@H](Cc1ccccc1)[C@@H](O)C[C@@H](Cc1ccccc1)c1ncc(C(C)C)[nH]1)C(C)C | 7.9 | 134
CC(C)(C)OC(=O)N[C@@H](Cc1ccccc1)[C@@H](O)C[C@@H](Cc1ccccc1)c1nc[nH]n1 | 5800 | –
CC(C)(C)OC(=O)N[C@@H](Cc1ccccc1)[C@@H](O)C[C@@H](Cc1ccccc1)c1nccs1 | 3000 | –
CCCc1cnc([C@H](Cc2ccccc2)C[C@H](O)[C@H](Cc2ccccc2)NC(=O)OC(C)(C)C)s1 (stereo in doubt; form 3) | 4600 | –
CNC(=O)c1c[nH]c([C@H](Cc2ccccc2)C[C@H](O)[C@H](Cc2ccccc2)NC(=O)OC(C)(C)C)n1 | 3700 | –
CC(C)c1cnc([C@H](Cc2ccccc2)C[C@H](O)[C@H](Cc2ccccc2)NC(=O)[C@@H](NC(=O)OC(C)(C)C)C(C)C)[nH]1 | 300 | –
CCCc1cnc([C@H](Cc2ccccc2)C[C@H](O)[C@H](Cc2ccccc2)NC(=O)OC(C)(C)C)s1 (stereo in doubt; form 1) | 700 | –
CCOC(=O)N[C@H](C(=O)N[C@@H](Cc1ccccc1)[C@@H](O)C[C@@H](Cc1ccccc1)c1nc(C(C)C)c[nH]1)C(C)C | 2.8 | 77
CC(C)c1c[nH]c([C@H](Cc2ccccc2)C[C@H](O)[C@H](Cc2ccccc2)NC(=O)[C@@H](NC=O)C(C)C)n1 | 4.6 | –
CC(=O)N[C@H](C(=O)N[C@@H](Cc1ccccc1)[C@@H](O)C[C@@H](Cc1ccccc1)c1ncc(C(C)C)[nH]1)C(C)C | 1 | 40
CCCc1cnc([C@H](Cc2ccccc2)C[C@H](O)[C@H](Cc2ccccc2)NC(=O)OC(C)(C)C)s1 (stereo in doubt; form 2) | 410 | –
CCC(CC)C(=O)c1cnc([C@H](Cc2ccccc2)C[C@H](O)[C@H](Cc2ccccc2)NC(=O)OC(C)(C)C)[nH]1 | 46 | 850
CC(C)(C)OC(=O)N[C@@H](Cc1ccccc1)[C@@H](O)C[C@@H](Cc1ccccc1)c1nc(C(=O)C2CCCC2)c[nH]1 | 150 | –
CCCCc1cnc([C@H](Cc2ccccc2)C[C@H](O)[C@H](Cc2ccccc2)NC(=O)OC(C)(C)C)s1 | 26000 | –
CC(=O)N[C@@H](C(=O)N[C@@H](Cc1ccccc1)[C@@H](O)C[C@@H](Cc1ccccc1)c1nc(C(C)C)c[nH]1)C(C)C | 150 | –
CCc1cnc([C@H](Cc2ccccc2)C[C@H](O)[C@H](Cc2ccccc2)NC(=O)OC(C)(C)C)s1 | 2000 | –
CC(C)c1c[nH]c([C@H](Cc2ccccc2)C[C@H](O)[C@H](Cc2ccccc2)NC(=O)[C@@H](NC(=O)OCc2ccccc2)[C@H](C)O)n1 | 1.4 | 11
CC(C)c1cnc([C@H](Cc2ccccc2)C[C@H](O)[C@H](Cc2ccccc2)NC(=O)[C@@H](NC(=O)OCc2ccccc2)C(C)C)[nH]1 | 0.6 | 100
COC(=O)c1cnc([C@H](Cc2ccccc2)C[C@H](O)[C@H](Cc2ccccc2)NC(=O)OC(C)(C)C)[nH]1 | 1800 | –
CC(C)(C)OC(=O)N[C@@H](Cc1ccccc1)[C@@H](O)C[C@@H](Cc1ccccc1)c1ncc(C(=O)c2ccccc2)[nH]1 | 7800 | –
CCC(C)C(=O)c1c[nH]c([C@H](Cc2ccccc2)C[C@H](O)[C@H](Cc2ccccc2)NC(=O)OC(C)(C)C)n1 (some centres not stated) | 53 | 950
CCC(=O)c1cnc([C@H](Cc2ccccc2)C[C@H](O)[C@H](Cc2ccccc2)NC(=O)OC(C)(C)C)s1 | 3700 | –
COC(=O)N[C@H](C(=O)N[C@@H](Cc1ccccc1)[C@@H](O)C[C@@H](Cc1ccccc1)c1nc(C(C)C)c[nH]1)C(C)C | 2.1 | 50
CCC(O)c1cnc([C@H](Cc2ccccc2)C[C@H](O)[C@H](Cc2ccccc2)NC(=O)OC(C)(C)C)s1 (some centres not stated) | 720 | –

— ChEMBL document CHEMBL1128000, “Synthesis and antiviral activity of a novel class of HIV-1 protease inhibitors containing a heterocyclic P1-P2 amide bond isostere” (Bioorg Med Chem Lett, 1994)
